Assay results published in US20240190843A1, “CRYSTALLINE FORM OF A SHP2 INHIBITOR” (Array BioPharma Inc., priority 2021, published 2024).

Test: Comparative stability of stored solid samples (HPLC purity, PXRD, appearance after 7 days)
Assay type: physicochemical
Experimental: The chemical stability data using HPLC was evaluated on samples stored at several conditions as listed in Table 6 between free base hemihydrate Form 1 and amorphous form.
HPLC Method • Column: LC\027 Agilent Poroshell 120 EC-C18 150×4.6 mm, 2.7 μm • Column Temperature: 40° C. • Autosampler Temperature: Ambient • UV wavelength: 220 nm • Injection Volume: 4.00 μL • Flow Rate: 1.5 mL/min • Mobile Phase A: 0.02% TFA in H2O • Mobile Phase B: 0.02% TFA in MeCN • Time (minutes) Solvent B [%] • 0 20 • 3 20 • 15 70 • 15.1 95 • 16 95 • 16.1 20 • 20.0 20

HPLC purity (%) after 7 days (stored at 25° C./60% RH) [%]	Observations after 7 days (stored at 25° C./60% RH)	PXRD after 7 days (stored at 25° C./60% RH)	HPLC purity (%) after 7 days (stored at 40° C./75% RH) [%]	Observations after 7 days (stored at 40° C./75% RH)	PXRD after 7 days (stored at 40° C./75% RH)	HPLC purity (%) after 7 days (stored at 80° C.) [%]	Observations after 7 days (stored at 80° C.)	PXRD after 7 days (stored at 80° C.)	HPLC purity (%) after 7 days (stored at Ambient) [%]	Observations after 7 days (stored at Ambient)	PXRD after 7 days (stored at Ambient)	SMILES
82.8	Vibrant	Amorphous	86.7	Vibrant	Amorphous	54.7	Brown	Amorphous	71.7	Vibrant	Amorphous	Nc1nccc(Sc2cnc(N3CCC4(CC3)Cc3ccccc3[C@H]4N)nn2)c1Cl [Amorphous, (S)-1′-(6-((2-amino-3-chloropyridin-4-yl)thio)-1,2,4-triazin-3-yl)-1,3-dihydrospiro[indene-2,4′-piperidin]-1-amine]
97.5	Yellow	Form 1	97.6	Yellow	Form 1	97.1	Yellow	Form 1	97.1	Yellow	Form 1	Nc1nccc(Sc2cnc(N3CCC4(CC3)Cc3ccccc3[C@H]4N)nn2)c1Cl [Form 1, (S)-1′-(6-((2-amino-3-chloropyridin-4-yl)thio)-1,2,4-triazin-3-yl)-1,3-dihydrospiro[indene-2,4′-piperidin]-1-amine]
